These results are taken from the CATMoS acute toxicity set (Mansouri et al. 2021).

Structures are written as SMILES.

This data set can be described thus: GHS categories as the set defines them, by LD50: 1 up to 5, 2 up to 50, 3 up to 300, 4 up to 2000, 5 above 2000 mg/kg. As to conditions: rat; in vivo; po.
Turning to `CCOc1c(OC)cccc1-c1nc(=O)c2cc(C(=O)O)ccc2[nH]1`, the GHS category turned out to be 4.
The value for `O=C(CC(=O)c1ccccc1)c1ccccc1` was 5; that for `CCC=CCC(C)OC(=O)c1ccccc1O` (configuration not stated) was 5.
The same measure for `CCCCCCCCCCCCCCCCCCOC(=O)CCSCCC(=O)OCCCCCCCCCCCCCCCCCC`: 5.
The value for `CC(=O)Oc1ccccc1C(=O)Nc1ncc([N+](=O)[O-])s1` was 5; that for `CCN(C(=O)CCCSc1nnnn1C)C1CCCCC1` was 4.
Turning to `CCCCCCCCCCCCCCCCN(C)C`, the GHS category is recorded as 5.
The value for `CC(C)(O)C(=O)c1ccc(Cc2ccc(C(=O)C(C)(C)O)cc2)cc1` was 5; that for `CCOC[C@@H]1[C@@H](O)[C@H](O[C@H]2[C@H](O)[C@@H](OCC)[C@H](O)O[C@@H]2CO)O[C@H](COCC)[C@H]1O` was 5.
The same measure for `CC(C)=CCOC1=C(C(=O)Nc2ccccn2)N(C)S(=O)(=O)c2cc(Cl)sc21`: 2.
The value for `CCCC(CCC)C(=O)Oc1ccccc1OC` was 5; that for `CCOC(=O)C(=O)Nc1cc(Cl)ncn1` was 4; that for `NC(=O)NC1CCC(=O)c2sccc21` (configuration not stated) was 5.
Consider `CCC(C)(CCC(C)C)C(=O)OCC1CO1` (configuration not stated), for which the GHS category was 5.
The value for `NS(=O)(=O)c1ccc(N2CCCCS2(=O)=O)cc1` was 5; that for `NC(=O)c1ccc(N)cc1` was 5.
The value for `Cc1cccc2ncc(C(=O)N3CCCC3)c(=O)n12` was 3; that for `O=C(OCc1cncs1)Oc1ccc([N+](=O)[O-])cc1` was 5.
As to `CO/N=C(\C(=O)N[C@@H]1C(=O)N2C(C(=O)OCOC(=O)C(C)(C)C)=C(/C=C\c3scnc3C)CS[C@H]12)c1csc(N)n1`, the GHS category is 5.
The same measure for `CCOc1ccc(C(=O)NCc2ccc(OCCNC)cc2)cc1OCC`: 5; for `CCCC(O)CCO` (configuration not stated): 5; for `CC(COc1ccc(Oc2ccccc2)cc1)Oc1ccccn1` (configuration not stated): 5.
`O=C(OCCOCCO)c1cc(O)ccc1Nc1ccc(O)c(C(F)(F)F)c1` yielded a GHS category of 4.
Compound `CCOC(=O)C(C)OC(=O)c1cc(Oc2ccc(C(F)(F)F)cc2Cl)ccc1[N+](=O)[O-]` (configuration not stated) had a GHS category of 5.
The value for `Cc1ccc(C(N)=O)c(O)c1` was 5; that for `CCCCCCCCCCCC(=O)OOC(=O)CCCCCCCCCCC` was 5; that for `COC(=O)c1ccc(C(=O)OC)c(N=NC(C(C)=O)C(=O)Nc2ccc(NC(=O)C(N=Nc3cc(C(=O)OC)ccc3C(=O)OC)C(C)=O)cc2)c1` (configuration not stated) was 5.
The same measure for `CCCCCC(=O)OCCCC`: 5; for `COc1ccc2c(c1)c(CC(=O)NC1CCCC1)c(C)n2C(=O)c1ccc(Cl)cc1`: 5; for `CC[C@H]1OC(=O)C[C@@H](O)[C@H](C)[C@@H](O[C@@H]2O[C@H](C)[C@@H](O[C@H]3C[C@@](C)(O)[C@@H](O)[C@H](C)O3)[C@H](N(C)C)[C@H]2O)[C@@H](CC=O)C[C@@H](C)C(=O)C=CC(C)=C[C@@H]1CO[C@@H]1O[C@H](C)[C@@H](O)[C@@H](OC)[C@H]1OC`: 5.
Compound `Cc1c([N+](=O)[O-])cc2c(c1[N+](=O)[O-])C(C)(C)CC2(C)C` had a GHS category of 5.
The value for `Cc1c(C)c([N+](=O)[O-])c(C(C)(C)C)c([N+](=O)[O-])c1C` was 5; that for `FC(F)(F)c1cccc(N2CCc3ccccc3C2c2ccccc2)c1` (configuration not stated) was 4.
As for `Nc1nc(=O)[nH]cc1F`, the GHS category was 5.
The value for `CCCCCOC1OC(C)C(O)C(O)C1O` (configuration not stated) was 5.
The value for `CCCCCCCCCCCCCC[Si](C)(O[Si](C)(C)C)O[Si](C)(C)C` was 5.
The value for `OC1CCC(CN2CCC(=C3c4ccc(F)cc4Sc4ccc(C(F)(F)F)cc43)CC2)CC1` (configuration not stated) was 3.
Regarding `CCCCC(CC)C1NC(=O)N(SC(Cl)(Cl)Cl)C1=O` (configuration not stated), the GHS category was found to be 4.
The value for `O=C1CC[C@H]2CO[C@@H]1O2` was 5.
The same measure for `O=c1[nH]c(=O)n([C@H]2C[C@H](O)[C@@H](CO)O2)cc1C(F)(F)F`: 5; for `CC(=O)Oc1ccc(C(=C2CCCCC2)c2ccc(OC(C)=O)cc2)cc1`: 5.
`C#CCOc1ccc(CCNC(=O)C(OCC#C)c2ccc(Cl)cc2)cc1OC` (configuration not stated): the GHS category came out at 5.
The value for `CC(C)(C)c1ccc(O)c(C(C)(C)C)c1` was 5.
Compound `C[Si](C)(C)O[Si](C)(C)C` gave a GHS category of 5.
The same measure for `CCN(C(=O)Cl)C1CCCCC1`: 4; for `C#CCN1C(=O)CCc2c(OCCCN3CCC(Cc4ccccc4)CC3)cccc21`: 4.
The same measure for `CCCCCCCC(=O)O[C@H]1CO[C@H]2[C@@H]1OC[C@H]2OC(=O)CCCCCCC`: 5; for `Cc1c(C#N)sc(N)c1C#N`: 4; for `C/C(=C\CO)CCC[C@H](C)CCC[C@H](C)CCCC(C)C`: 5.
The value for `COc1ccc2c(c1)CCN(c1cccc(F)c1)C2c1cccc(F)c1` (configuration not stated) was 4; that for `CCCCCCC(C)(C)c1cc(O)c2c(c1)OC(C)(C)[C@@H]1CCC(=O)C[C@@H]21` was 4; that for `O=C(Nc1ccccc1)N(Cc1ccc(Cl)cc1)C1CCCC1` was 5.
`CCCNC(=O)C(Cc1ccc(OCCN(CC)CC)cc1)NC(=O)c1ccccc1` (configuration not stated) returned a GHS category of 4.
The value for `CCC(=O)O[C@]1(C(=O)CCl)[C@@H](C)C[C@H]2[C@@H]3CCC4=CC(=O)C=C[C@]4(C)[C@@]3(F)[C@@H](O)C[C@@]21C` was 5.
The same measure for `CCCCCCCCC(=O)NO`: 5.
The value for `O=C1NC(=O)c2cccc3cccc1c23` was 5; that for `CC(C)=CCN(CC=C(C)C)CCC(C#N)(Cc1cccc2ccccc12)C(C)C` (configuration not stated) was 4; that for `Cc1cc(C(C)(C)C)c(OP2COC3(COP(Oc4c(C(C)(C)C)cc(C)cc4C(C)(C)C)OC3)OC2)c(C(C)(C)C)c1` (configuration not stated) was 5.
Compound `c1ccc(OCC2COC(Cn3cncn3)(c3cc4ccccc4o3)O2)cc1` (configuration not stated) had a GHS category of 4.
The value for `Cc1ccc(C(C)C)cc1OC(=O)c1ccccc1Nc1cccc(C)c1C` was 5; that for `CC1(C)S[C@@H]2[C@H](NC(=O)[C@H](NC(=O)N3CCN(S(C)(=O)=O)C3=O)c3ccccc3)C(=O)N2[C@H]1C(=O)O` was 5.
The same measure for `CCC(=O)OC(C)(C)C1CC=C(C)CC1` (configuration not stated): 5; for `C[C@]12CC[C@@H]3c4ccc(O)cc4CC[C@H]3[C@@H]1C[C@@H](O)[C@@H]2O`: 5.
The same measure for `CC(C)c1[nH]c2ccccc2c1C(=O)c1cccnc1`: 5; for `COc1cc(S(=O)(=O)O)c(C)cc1/N=N/c1c(O)ccc2cc(S(=O)(=O)O)ccc12`: 5; for `O=C1OC(CBr)CC12CC(CBr)OC2=O` (configuration not stated): 5.
In the case of `CC(C)CCCCCCCCCCCCCC=CC1CC(=O)OC1=O` (configuration not stated), the GHS category turned out to be 5.
Compound `O=C(Nc1ccc(Cl)cc1C(O)c1ccccc1)c1ccncc1` (configuration not stated) had a GHS category of 5.
The value for `COc1cc(C=CC(=O)CC(=O)C=Cc2ccc(O)c(OC)c2)ccc1O` was 5.
The value for `CC=CC(=O)OCCCCCC` was 5; that for `OC1c2ccccc2CCc2ccncc21` (configuration not stated) was 5; that for `COc1ccc(CCN(C(=O)CCCSc2nnnn2C)C2CCCCC2)cc1OC` was 4.
The same measure for `Cc1cc(C(F)(C(F)(F)F)C(F)(F)F)ccc1NC(=O)c1cccc(I)c1C(=O)NC(C)(C)CS(C)(=O)=O`: 5.
In turn, `CC(C)CC(=O)OC1CC(C)CCC1C(C)C` (configuration not stated) showed a GHS category of 5.
`Nc1cc(Cl)c(Cl)cc1S(=O)(=O)O` yielded a GHS category of 5.
The value for `O=C(NC(=O)c1c(F)cccc1F)Nc1cc(Cl)c(OC(F)(F)C(F)F)c(Cl)c1` was 5; that for `O=C1CCc2c(cccc2OCCCN2CCC(Cc3ccccc3)CC2)N1` was 4; that for `CCOC(C)C(C=NNC(N)=S)=NNC(N)=S` (configuration not stated) was 5.
On to `O=S(=O)(O)OC1C(OS(=O)(=O)O)C(OS(=O)(=O)O)C(OS(=O)(=O)O)C(OS(=O)(=O)O)C1OS(=O)(=O)O` (configuration not stated), for which the GHS category is given as 5.
The same measure for `CC(SC(=O)c1cccs1)C(=O)NCC(=O)O` (configuration not stated): 5; for `CC(C)(C)C(O)/C=C/c1ccc2c(c1)OCO2` (configuration not stated): 5; for `CN(C)CCCNc1nc2cc(Cl)ccc2o1`: 4.
The value for `CC(=O)OC(C)c1ccccc1` (racemic) was 5; that for `Oc1ccc2c(c1)CCN(c1ccccc1)C2c1ccc(F)cc1` (configuration not stated) was 4.
For `S=C(SSC(=S)N(Cc1ccccc1)Cc1ccccc1)N(Cc1ccccc1)Cc1ccccc1`, the GHS category was determined as 5.
The value for `CCCC(C)c1ccc(OCC(=O)Cl)c(C(C)CCC)c1` (configuration not stated) was 5; that for `CCCc1c(Cc2ccc(-c3ccccc3-c3nn[nH]n3)cc2)c(N2CCCC2)nc2ncnn12` was 4.
On to `CN1CCN(C2=NS(=O)(=O)c3cc(Cl)ccc3N2)CC1`, for which the GHS category was 5.
The same measure for `O=C(O)c1ccc(/N=N/c2ccc(O)c(C(=O)O)c2)cc1`: 5; for `CCCCl`: 5; for `CC(CO)CO`: 5.
The same measure for `CNS(=O)(=O)Cc1ccc2[nH]cc(CCN(C)C)c2c1`: 5.
The value for `CCC(C)n1ncn(-c2ccc(N3CCN(c4ccc(O)cc4)CC3)cc2)c1=O` (configuration not stated) was 5.
Turning to `Cn1c(=O)c2[nH]c(=O)[nH]c2n(C)c1=O`, the GHS category is reported as 5.
The value for `CC(=O)Nc1c(I)c(NC(C)=O)c(I)c(C(=O)O)c1I` was 5.
`Cc1cccc2ncc(C(=O)Nc3ccc(F)cc3)c(=O)n12` displayed a GHS category of 3.
The compound `CC1OC(OC2C(OC(=O)C=Cc3ccc(O)c(O)c3)C(CO)OC3OCC(c4ccc(O)c(O)c4)OC32)C(O)C(O)C1O` (configuration not stated) had a GHS category of 5.
